In US20250296953A1, “3,4-THIAZOLO-STEROIDS AND METHODS OF MAKING AND USING THE SAME” (Arkansas State University - Jonesboro, priority 2018, published 2025):

Legend:
NCI-H522 (NSCLC) = test: NCI 60 one dose screen; format: cell-based, human; settings: Non-small Cell Lung Cancer
[1] = tested on: 60 different human tumor cell lines; test: NCI Development Therapeutics Program 60 cell line screen, one dose; format: cell-based
glioblastoma (SF-295) = test: NCI 60 five dose screen; settings: for CC50: read-out: LC50
RPMI-8226 = test: NCI 60 five dose screen; settings: for GI50 / TGI / CC50: RPMI-8226 (Leukemia), five dose; for CC50: read-out: LC50; for 50% growth inhibition (GI50): leukemia cell line RPMI-8226
[2] = Non-small Cell Lung Cancer, A549/ATCC
[3] = Non-small Cell Lung Cancer, EKVX
[4] = Non-small Cell Lung Cancer, HOP-62
[5] = Non-small Cell Lung Cancer, HOP-92
[6] = Non-small Cell Lung Cancer, NCI-H23
[7] = Non-small Cell Lung Cancer, NCI-H226
[8] = Non-small Cell Lung Cancer, NCI-H322M
[9] = Non-small Cell Lung Cancer, NCI-H460

## C[C@]12CCc3nc(N)sc3C1=CC[C@@H]1[C@@H]2CC[C@]2(C)C(=NNC(N)=O)CC[C@@H]12 [IVb.1]
NCI-H522 (NSCLC)
  Growth Percent: −18.57%
[1]; Breast Cancer, BT-549
  Growth Percent: 107.48%
[1]; Breast Cancer, HS 578T
  Growth Percent: 36.38%
[1]; Breast Cancer, MCF7
  Growth Percent: −55.62%
[1]; Breast Cancer, MDA-MB-231/ATCC
  Growth Percent: 35.18%
[1]; Breast Cancer, MDA-MB-468
  Growth Percent: −46.23%
[1]; Breast Cancer, T-47D
  Growth Percent: −21.02%
[1]; CNS Cancer, SF-268
  Growth Percent: −6.41%
[1]; CNS Cancer, SNB-19
  Growth Percent: −9.98%
[1]; CNS Cancer, SNB-75
  Growth Percent: 99.02%
[1]; CNS Cancer, U251
  Growth Percent: −69.94%
[1]; Colon Cancer, COLO 205
  Growth Percent: 34.98%
[1]; Colon Cancer, HCC-2998
  Growth Percent: 63.85%
[1]; Colon Cancer, HCT-116
  Growth Percent: 6.35%
[1]; Colon Cancer, HT29
  Growth Percent: 13.20%
[1]; Colon Cancer, KM12
  Growth Percent: 20.47%
[1]; Colon Cancer, SW-620
  Growth Percent: −59.20%
[1]; Leukemia, CCRF-CEM
  Growth Percent: −5.86%
[1]; Leukemia, HL-60(TB)
  Growth Percent: 42.82%
[1]; Leukemia, K-562
  Growth Percent: −38.55%
[1]; Leukemia, MOLT-4
  Growth Percent: 13.35%
[1]; Leukemia, RPMI-8226
  Growth Percent: −6.28%
[1]; Leukemia, SR
  Growth Percent: −21.79%
[1]; Melanoma, LOX IMVI
  Growth Percent: −67.61%
[1]; Melanoma, M14
  Growth Percent: −51.14%
[1]; Melanoma, MALME-3M
  Growth Percent: 3.07%
[1]; Melanoma, MDA-MB-435
  Growth Percent: −58.82%
[1]; Melanoma, SK-MEL-5
  Growth Percent: 20.55%
[1]; Melanoma, SK-MEL-28
  Growth Percent: 13.00%
[1]; Melanoma, UACC-62
  Growth Percent: 38.92%
[1]; Melanoma, UACC-257
  Growth Percent: 105.26%
[1]; [2]
  Growth Percent: 0.92%
[1]; [3]
  Growth Percent: −4.54%
[1]; [4]
  Growth Percent: 75.49%
[1]; [5]
  Growth Percent: 46.57%
[1]; [6]
  Growth Percent: −44.30%
[1]; [7]
  Growth Percent: 107.87%
[1]; [8]
  Growth Percent: 52.42%
[1]; [9]
  Growth Percent: −38.65%
[1]; Ovarian Cancer, IGROV1
  Growth Percent: 2.90%
[1]; Ovarian Cancer, NCI/ADR-RES
  Growth Percent: −5.32%
[1]; Ovarian Cancer, OVCAR-3
  Growth Percent: −32.35%
[1]; Ovarian Cancer, OVCAR-4
  Growth Percent: −19.07%
[1]; Ovarian Cancer, OVCAR-5
  Growth Percent: 72.93%
[1]; Ovarian Cancer, OVCAR-8
  Growth Percent: −2.26%
[1]; Ovarian Cancer, SK-OV-3
  Growth Percent: 100.67%
[1]; Prostate Cancer, PC-3
  Growth Percent: 57.29%
[1]; Renal Cancer, 786-0
  Growth Percent: −9.65%
[1]; Renal Cancer, A498
  Growth Percent: 91.62%
[1]; Renal Cancer, ACHN
  Growth Percent: 32.38%
[1]; Renal Cancer, CAKI-1
  Growth Percent: 62.97%
[1]; Renal Cancer, RXF 393
  Growth Percent: 7.08%
[1]; Renal Cancer, SN12C
  Growth Percent: 18.09%
[1]; Renal Cancer, TK-10
  Growth Percent: 49.21%
[1]; Renal Cancer, UO-31
  Growth Percent: 85.84%
Glioblastoma (SF-295); SF-295 (CNS Cancer), five dose
  GI50: 1610 nM
  TGI: 3.03E−6
  CC50: 5.71 µM
RPMI-8226
  GI50: 300 nM
  TGI: 1.37E−6
  CC50: > 100 µM

## (1S,2R,13R,14S,18S)-7-(3-fluoroanilino)-2,18-dimethyl-6-thia-8-azapentacyclo[11.7.0.02,10.05,9.014,18]icosa-5(9),7,10-trien-17-one [IIa.8]
NCI-H522 (NSCLC)
  Growth Percent: −43.73%
[1]; Breast Cancer, BT-549
  Growth Percent: −8.61%
[1]; Breast Cancer, HS 578T
  Growth Percent: 35.44%
[1]; Breast Cancer, MCF7
  Growth Percent: 4.46%
[1]; Breast Cancer, MDA-MB-231/ATCC
  Growth Percent: 38.20%
[1]; Breast Cancer, MDA-MB-468
  Growth Percent: −2.99%
[1]; Breast Cancer, T-47D
  Growth Percent: −0.76%
[1]; CNS Cancer, SF-268
  Growth Percent: 55.66%
[1]; CNS Cancer, SNB-19
  Growth Percent: 62.83%
[1]; CNS Cancer, SNB-75
  Growth Percent: 18.66%
[1]; CNS Cancer, U251
  Growth Percent: 15.66%
[1]; Colon Cancer, COLO 205
  Growth Percent: 47.59%
[1]; Colon Cancer, HCC-2998
  Growth Percent: 75.50%
[1]; Colon Cancer, HCT-116
  Growth Percent: −68.78%
[1]; Colon Cancer, HT29
  Growth Percent: −3.32%
[1]; Colon Cancer, KM12
  Growth Percent: 38.74%
[1]; Colon Cancer, SW-620
  Growth Percent: 4.62%
[1]; Leukemia, CCRF-CEM
  Growth Percent: 4.95%
[1]; Leukemia, HL-60(TB)
  Growth Percent: 8.58%
[1]; Leukemia, K-562
  Growth Percent: −0.51%
[1]; Leukemia, MOLT-4
  Growth Percent: −3.78%
[1]; Leukemia, RPMI-8226
  Growth Percent: −22.26%
[1]; Leukemia, SR
  Growth Percent: −11.87%
[1]; Melanoma, LOX IMVI
  Growth Percent: 6.22%
[1]; Melanoma, M14
  Growth Percent: 44.82%
[1]; Melanoma, MALME-3M
  Growth Percent: 22.82%
[1]; Melanoma, MDA-MB-435
  Growth Percent: 35.93%
[1]; Melanoma, SK-MEL-2
  Growth Percent: 21.81%
[1]; Melanoma, SK-MEL-5
  Growth Percent: 32.06%
[1]; Melanoma, SK-MEL-28
  Growth Percent: 39.44%
[1]; Melanoma, UACC-62
  Growth Percent: 37.50%
[1]; Melanoma, UACC-257
  Growth Percent: 73.04%
[1]; [2]
  Growth Percent: 35.39%
[1]; [3]
  Growth Percent: 46.43%
[1]; [4]
  Growth Percent: 20.40%
[1]; [5]
  Growth Percent: 68.93%
[1]; [6]
  Growth Percent: 55.09%
[1]; [7]
  Growth Percent: 71.91%
[1]; [8]
  Growth Percent: 55.83%
[1]; [9]
  Growth Percent: 51.98%
[1]; Ovarian Cancer, IGROV1
  Growth Percent: 60.02%
[1]; Ovarian Cancer, NCI/ADR-RES
  Growth Percent: 55.43%
[1]; Ovarian Cancer, OVCAR-3
  Growth Percent: −5.24%
[1]; Ovarian Cancer, OVCAR-4
  Growth Percent: 59.21%
[1]; Ovarian Cancer, OVCAR-5
  Growth Percent: 65.53%
[1]; Ovarian Cancer, OVCAR-8
  Growth Percent: 39.56%
[1]; Ovarian Cancer, SK-OV-3
  Growth Percent: −18.44%
[1]; Prostate Cancer, DU-145
  Growth Percent: 17.23%
[1]; Renal Cancer, 786-0
  Growth Percent: −13.93%
[1]; Renal Cancer, A498
  Growth Percent: 22.95%
[1]; Renal Cancer, ACHN
  Growth Percent: 1.56%
[1]; Renal Cancer, CAKI-1
  Growth Percent: 50.45%
[1]; Renal Cancer, RXF 393
  Growth Percent: −28.44%
[1]; Renal Cancer, SN12C
  Growth Percent: 28.50%
[1]; Renal Cancer, TK-10
  Growth Percent: 20.27%
[1]; Renal Cancer, UO-31
  Growth Percent: −26.89%
Glioblastoma (SF-295); SF-295 (CNS Cancer), five dose
  GI50: 1190 nM
  TGI: 2.97E−6
  CC50: 7.37 µM
Glioblastoma (SF-295); glioblastoma SF-295
  GI50: 1190 nM
RPMI-8226
  GI50: 859 nM
  TGI: 3.90E−6
  50% growth inhibition (GI50): submicromolar
  CC50: > 100 µM

## (1S,2R,13R,14S,18S)-7-(2,4-dimethylanilino)-2,18-dimethyl-6-thia-8-azapentacyclo[11.7.0.02,10.05,9.014,18]icosa-5(9),7,10-trien-17-one [IIa.14]
NCI-H522 (NSCLC)
  Growth Percent: 24.64%
[1]; Breast Cancer, BT-549
  Growth Percent: 2.85%
[1]; Breast Cancer, HS 578T
  Growth Percent: 45.27%
[1]; Breast Cancer, MCF7
  Growth Percent: 18.18%
[1]; Breast Cancer, MDA-MB-231/ATCC
  Growth Percent: 26.55%
[1]; Breast Cancer, MDA-MB-468
  Growth Percent: 16.97%
[1]; Breast Cancer, T-47D
  Growth Percent: 41.81%
[1]; CNS Cancer, SF-268
  Growth Percent: 46.93%
[1]; CNS Cancer, SNB-19
  Growth Percent: 44.03%
[1]; CNS Cancer, SNB-75
  Growth Percent: 35.14%
[1]; CNS Cancer, U251
  Growth Percent: 18.36%
[1]; Colon Cancer, COLO 205
  Growth Percent: 62.35%
[1]; Colon Cancer, HCC-2998
  Growth Percent: 84.48%
[1]; Colon Cancer, HCT-116
  Growth Percent: −27.32%
[1]; Colon Cancer, HT29
  Growth Percent: 3.81%
[1]; Colon Cancer, KM12
  Growth Percent: 44.55%
[1]; Colon Cancer, SW-620
  Growth Percent: 4.35%
[1]; Leukemia, CCRF-CEM
  Growth Percent: 7.99%
[1]; Leukemia, HL-60(TB)
  Growth Percent: 9.29%
[1]; Leukemia, K-562
  Growth Percent: 5.33%
[1]; Leukemia, MOLT-4
  Growth Percent: −0.31%
[1]; Leukemia, RPMI-8226
  Growth Percent: −3.52%
[1]; Leukemia, SR
  Growth Percent: −0.63%
[1]; Melanoma, LOX IMVI
  Growth Percent: −16.56%
[1]; Melanoma, M14
  Growth Percent: 37.85%
[1]; Melanoma, MALME-3M
  Growth Percent: 27.34%
[1]; Melanoma, MDA-MB-435
  Growth Percent: 16.89%
[1]; Melanoma, SK-MEL-2
  Growth Percent: 72.63%
[1]; Melanoma, SK-MEL-5
  Growth Percent: 51.38%
[1]; Melanoma, SK-MEL-28
  Growth Percent: 50.77%
[1]; Melanoma, UACC-62
  Growth Percent: 39.03%
[1]; Melanoma, UACC-257
  Growth Percent: 65.55%
[1]; [2]
  Growth Percent: 61.13%
[1]; [3]
  Growth Percent: 51.95%
[1]; [4]
  Growth Percent: 45.74%
[1]; [5]
  Growth Percent: 65.93%
[1]; [6]
  Growth Percent: 54.16%
[1]; [7]
  Growth Percent: 72.85%
[1]; [8]
  Growth Percent: 79.50%
[1]; [9]
  Growth Percent: 45.78%
[1]; Ovarian Cancer, IGROV1
  Growth Percent: 17.68%
[1]; Ovarian Cancer, NCI/ADR-RES
  Growth Percent: 53.35%
[1]; Ovarian Cancer, OVCAR-3
  Growth Percent: −6.33%
[1]; Ovarian Cancer, OVCAR-4
  Growth Percent: 59.62%
[1]; Ovarian Cancer, OVCAR-5
  Growth Percent: 59.08%
[1]; Ovarian Cancer, OVCAR-8
  Growth Percent: 31.69%
[1]; Ovarian Cancer, SK-OV-3
  Growth Percent: 78.49%
[1]; Prostate Cancer, DU-145
  Growth Percent: 25.93%
[1]; Prostate Cancer, PC-3
  Growth Percent: 15.83%
[1]; Renal Cancer, 786-0
  Growth Percent: 5.54%
[1]; Renal Cancer, A498
  Growth Percent: 66.68%
[1]; Renal Cancer, ACHN
  Growth Percent: 32.28%
[1]; Renal Cancer, CAKI-1
  Growth Percent: 49.83%
[1]; Renal Cancer, RXF 393
  Growth Percent: 28.78%
[1]; Renal Cancer, SN12C
  Growth Percent: 26.21%
[1]; Renal Cancer, TK-10
  Growth Percent: 63.32%
[1]; Renal Cancer, UO-31
  Growth Percent: 34.25%
Glioblastoma (SF-295); SF-295 (CNS Cancer), five dose
  GI50: 1810 nM
  TGI: 4.10E−6
RPMI-8226
  GI50: 2430 nM
  TGI: 6.25E−6
  50% growth inhibition (GI50): submicromolar
  CC50: > 100 µM
